Assay results taken from US9908877B2, “Imidazo[1,5-a]pyridinium ion fluorophores, and methods of making and using the same” (Indiana University Research and Technology Corporation, priority 2013, dated 2018).

Assays:
Type in all cases: physicochemical
[1] = Fluorescence quantum yield, integrating sphere; conditions: for ΦF (quantum yield): 30 μM acetonitrile, 298 K, Table 1
Procedure: Method for Determining Quantum Yield
Quantum yield is determined using an integrating sphere attached to a QM-4-CW Spectrofluorometer using FeliX32 software (Photon Technology International).
(§1) The compounds were analyzed at 298° K according to the Method for Obtaining Ultraviolet-Visible Light Spectrum (30 μM acetonitrile) to obtain the maximum absorbance wavelength (λabs,max), Method for Obtaining Fluorescence Emission Spectrum (30 μM acetonitrile) to obtain the maximum emission wavelength (λem,max) and Method for Determining Quantum Yield (ΦF) (30 μM acetonitrile) at the concentration, in the solvent, and with the counter ion indicated in Table 1. The compounds included hydrogen at each R group that is not otherwise specified.
(§2) Compounds 6, 7, 9, 11-14 and 21 were analyzed according to: the Method for Obtaining Ultraviolet-Visible Light Spectrum to obtain the maximum absorbance wavelength (λabs,max), the Method for Obtaining Fluorescence Emission Spectrum to obtain the maximum emission wavelength (λem,max), and the Method for Determining Quantum Yield (ΦF) in the solvent and with the counter ion indicated in Table 3.

[2] = Fluorescence emission spectrum (maximum emission wavelength)
Procedure: Method for Obtaining a Fluorescence Emission Spectrum
Fluorescence emission spectra are obtained and recorded on a QM-4-CW Spectrofluorometer using FeliX32 software (Photon Technology International, Inc., Birmingham, N.J.).
as §1, §2

[3] = Ultraviolet-visible light spectrum (maximum absorbance wavelength)
Procedure: Method for Obtaining an Ultraviolet-Visible Light Spectrum
Ultraviolet-visible (UV-Vis) Light spectra are obtained and recorded on an Agilent 8453 spectrophotometer using ChemStation software (Agilent Technologies, Inc., Santa Clara, Calif.).
as §1, §2

[4] = Fluorescence response to trifluoroacetic acid / DBU in acetonitrile; conditions: for emission wavelength λem,max: acetonitrile + 50 μL trifluoroacetic acid; for emission intensity at 400 nm: 30 μM in acetonitrile + 50 μL trifluoroacetic acid; for emission intensity at 600 nm / emission wavelength: 30 μM in neat acetonitrile
Procedure: A 30 μM solution of Compound 6 in acetonitrile was prepared by adding 99 μL of a stock solution of 3.04 mM Compound 6 in methanol to 10 mL of acetonitrile. An initial fluorescence emission spectrum of the solution was obtained and is illustrated by curve (i) in FIG. 1A.
A series of approximately 13.8 μL aliquots of trifluoroacetic acid (TFA) were then added to the 30 μM solution of Compound 6 until a total concentration of 60.0 mM of TFA was present in the solution. (The total amount of TFA present in the solution corresponded to 2000 equivalents of acid per equivalent of Compound 6.) The fluorescence emission spectrum of the resulting solution was obtained and is illustrated by curve (ii) in FIG. 1A.
A base, i.e., 1,8-diazabicyclo[5.4.0]undec-7-ene (DBU), was then added to the solution to neutralize the acid until a concentration of 90 mM DBU was obtained. The fluorescence emission spectrum of the resulting solution was obtained and is illustrated by curve (iii) in FIG. 1A. The fluorescence emission intensity at λem,max=565 nm increased as the amount of base present in the system increased and the fluorescence emission intensity at λem,max=405 nm decreased as the amount of base present in the system increased, which reflected Compound 6's ratiometric response to the changing base concentration in acetonitrile.
A 30 μM solution of Compound 7 in acetonitrile was prepared by adding 84 μL of a stock solution of 3.58 mM Compound 7 in methanol to 10 mL of acetonitrile. The emission spectrum of the solution was then obtained and is illustrated by curve (i) in FIG. 1B.
A series of approximately 13.8 μL aliquots of TFA were then added to the 30 μM solution of Compound 7 until a total concentration of 60.0 mM TFA was present in the solution (which corresponded to 2000 equivalents of acid per equivalent of Compound 7). The fluorescence emission spectrum of the solution was obtained and is illustrated by curve (ii) in FIG. 1B.
After the 60 mM TFA concentration was achieved, DBU was gradually added to the solution until a total concentration of 90 mM DBU was present in the solution. The fluorescence spectrum of the solution was obtained and is illustrated by curve (iii) in FIG. 1B.
An aliquot of 50 μL of trifluoroacetic acid was then added to the system, and the fluorescence emission spectrum was obtained and is illustrated by the curved line with a peak at 360 nm in FIG. 6A.
Compound 10 was placed in neat acetonitrile and its emission spectrum was monitored as trifluoroacetic acid was added to the acetonitrile in incremental amounts to achieve a solution that included an acid concentration ranging from 0 to 0.2 M. After each acid addition the sample was excited with radiation of a wavelength 340 nm, and its fluorescence emission spectrum was monitored. The results are illustrated in FIG. 7A.
The solution of Compound 10 in acetonitrile was titrated with trifluoroacetic acid (TFA). […] The first stage, which occurred with the addition of the initial aliquots of TFA, was a slight increase intensity at 580 nm, as illustrated in FIG. 7A. As more TFA was added to the system, a second transition occurred in which the emission at 580 nm began to decrease and as the emission at 400 nm began to increase, as illustrated in FIG. 7B. A plot of the emission intensity at 580 nm versus pH and at 400 nm versus pH is illustrated in FIG. 7C.
Compounds 10, 11, and 12 were then each individually added, at a concentration of 30 μM, to acetonitrile and the emission spectrum of each was monitored. The compounds emitted at 600 nm with an intensity of about 7.57×10^5 arbitrary units (a.u.) in neat acetonitrile. […] FIG. 8B illustrates the emission properties of Compound 12.

[5] = Fluorescence response to pH in buffered water; conditions: for fluorescence emission in water at pH 7.5: water pH 7.5
Procedure: Stock solutions of each compound (having a concentration of from 1-5 mM) were prepared by dissolving the corresponding salts of the compounds in methanol or 1V, N-dimethylformamide, and then diluting the same with acetonitrile or buffered water having a pH of from 2.5 to 7.5 derived from 0.2 M […] and 0.1 M citric acid, to achieve a sample solution having a compound concentration of 30.0 μM.
The emission spectrum for each sample was obtained. The results are illustrated by the plot in FIG. 2A.
The emission spectrum for each sample was obtained. […] The results are illustrated in the plot of FIG. 2B.
The fluorescence emission spectrum of Compound 8 in water having a pH of 2.5 was also obtained and is illustrated by the curved line with a peak at 360 nm in FIG. 5B.
Compounds 10, 11, and 12 were each individually added, at a concentration of 30 μM, to water having a pH=7.5 and the emission spectra of each were obtained. […] As the pH was decreased from 7.5 to 2.5 in 0.5 pH unit increments, fluorescence emission at 600 nm remained relatively nonexistent and the intensity of the fluorescence emission at 400 nm increased in correlation to the decrease in pH. FIG. 8A illustrates the emission properties of Compound 12.

[6] = 30 μM acetonitrile, 298 K, Table 1

SMILES	ΦF (quantum yield) [1]	λem, max Em [2, 6]	λabs, max Abs [3, 6]	emission wavelength λem,max [4]	fluorescence emission in water at pH 7.5 [5]	[…]F (quantum yield) ([1]; MeCN, 30 μM)	λem, max Em ([2]; MeCN, 30 μM)	λabs, max Abs ([3]; MeCN, 30 μM)	[…]F (quantum yield) ([1]; H2O pH = 7.5, 30 μM)	λabs, max Abs ([3]; H2O pH = 7.5, 30 μM)	also measured
CCCCn1c[n+]2ccccc2c1-c1ccc(C)cc1 [Compound 3, 2-butyl-1-(p-tolyl)-2H-imidazo[1,5-a]pyridin-4-ium tertraphenylborate]	46%	415 nm	320 nm	–	–	–	–	–	–	–	–
CCCCn1c[n+]2ccccc2c1-c1ccc(OC)cc1.[Cl-] [Compound 4, 2-butyl-1-(4-methoxyphenyl)-2H-imidazo[1,5-a]pyridin-4-ium chloride]	64%	430 nm	320 nm	–	–	–	–	–	–	–	–
CCCCn1c[n+]2ccccc2c1-c1ccc(N(CC)CC)cc1 [Compound 5, 2-butyl-1-(4-(diethylamino)phenyl)-2H-imidazo[1,5-a]pyridin-4-ium tetraphenylborate]	38%	550 nm	355 nm	–	–	–	–	–	–	–	–
CC(C)c1cc(N(C)C)cc(C(C)C)c1-n1cc2cccc[n+]2c1 [Compound 8, 2-(4-(dimethylamino)-2,6-diisopropylphenyl)-2H-imidazo[1,5-a]pyridin-4-ium tetraphenylborate]	–	–	–	360 nm	fluorescence quenching	–	–	–	–	–	fluorescence emission in neat acetonitrile ([4]; acetonitrile without acid): fluorescence quenching; fluorescence λem ([5]; water, pH 2.5): 360 nm
CCCCn1cc2cccc(-c3ccc(N(C)C)cc3)[n+]2c1 [Compound 9, 2-butyl-5-(4-(dimethylamino)phenyl)-2H-imidazo[1,5-a]pyridin-4-ium tetraphenylborate]	–	–	–	–	–	75%	490 nm	350 nm	–	–	–
CCN(CC)c1ccc(-n2cc(-c3cccc4cn(-c5ccc(N(C)C)cc5)c[n+]34)nn2)cc1.[Cl-] [Compound 10, 5-(1-(4-(diethylamino)phenyl)-1H-1,2,3-triazol-4-yl)-2-(4-(dimethylamino)phenyl)-2H-imidazo[1,5-a]pyridin-4-ium chloride]	–	–	–	400 nm	essentially no fluorescence emission	–	–	–	–	–	emission intensity at 400 nm [4]: 1.34×10^6 a.u.; emission intensity at 600 nm [4]: about 7.57×10^5 arbitrary units (a.u.); emission wavelength [4]: 600 nm; emission response to stepwise addition of TFA ([4]; acetonitrile, TFA 0 to 0.2 M, excited at 340 nm, emission at 580 nm and 400 nm): two stage transitions
Cc1ccc(-n2cc(-c3cccc4cn(-c5ccc(N(C)C)cc5)c[n+]34)nn2)cc1.[Cl-] [Compound 11, 2-(4-(dimethylamino)phenyl)-5-(1-(p-tolyl)-1H-1,2,3-triazol-4-yl)-2H-imidazo[1,5-a]pyridin-4-ium chloride]	–	–	–	400 nm	essentially no fluorescence emission	35%	605 nm	400 nm	0%	340 nm	[…]F (quantum yield) ([1]; H2O pH = 2.5, 30 μM): 29%; […]F (quantum yield) ([1]; MeCN + 50 μL TFA, 30 μM): 55%; emission intensity at 400 nm [4]: 1.34×10^6 a.u.; emission intensity at 600 nm [4]: about 7.57×10^5 arbitrary units (a.u.); emission wavelength [4]: 600 nm; λem, max Em ([2]; H2O pH = 2.5, 30 μM): 400 nm; λem, max Em ([2]; MeCN + 50 μL TFA, 30 μM): 405 nm; λabs, max Abs ([3]; H2O pH = 2.5, 30 μM): 340 nm; λabs, max Abs ([3]; MeCN + 50 μL TFA, 30 μM): 340 nm
Cc1ccc(-n2cc3cccc(-c4cn(-c5ccc(N(C)C)cc5)nn4)[n+]3c2)cc1.[Cl-] [Compound 13, 5-(1-(4-(dimethylamino)phenyl)-1H-1,2,3-triazol-4-yl)-2-(p-tolyl)-2H-imidazo[1,5-a]pyridin-4-ium chloride]	–	–	–	–	–	0%	–	340 nm	0%	340 nm	[…]F (quantum yield) ([1]; H2O pH = 2.5, 30 μM): 59%; […]F (quantum yield) ([1]; MeCN + 50 μL TFA, 30 μM): 67%; λem, max Em ([2]; H2O pH = 2.5, 30 μM): 405 nm; λem, max Em ([2]; MeCN + 50 μL TFA, 30 μM): 410 nm; λabs, max Abs ([3]; H2O pH = 2.5, 30 μM): 340 nm; λabs, max Abs ([3]; MeCN + 50 μL TFA, 30 μM): 340 nm
CCN(CC)c1ccc(-n2cc(-c3cccc4cn(-c5ccc(C)cc5)c[n+]34)nn2)cc1.[Cl-] [Compound 14, 5-(1-(4-(diethylamino)phenyl)-1H-1,2,3-triazol-4-yl)-2-(p-tolyl)-2H-imidazo[1,5-a]pyridin-4-ium chloride]	–	–	–	–	–	0%	–	340 nm	0%	340 nm	[…]F (quantum yield) ([1]; H2O pH = 2.2, 30 μM): 53%; […]F (quantum yield) ([1]; MeCN + excess TFA, 30 μM): 64%; λem, max Em ([2]; H2O pH = 2.2, 30 μM): 405 nm; λem, max Em ([2]; MeCN + excess TFA, 30 μM): 410 nm; λabs, max Abs ([3]; H2O pH = 2.2, 30 μM): 340 nm; λabs, max Abs ([3]; MeCN + excess TFA, 30 μM): 340 nm
COc1ccc(-n2cc3cccc(-c4ccc(N(C)C)cc4)[n+]3c2)cc1 [Compound 21, 5-(4-(dimethylamino)phenyl)-2-(4-methoxyphenyl)-2H-imidazo[1,5-a]pyridin-4-ium tetraphenylborate]	–	–	–	–	–	10%	540 nm	360 nm	–	–	–
